Some test systems named below: HCC-2998 colon; HOP-92 NSCLC; KM12 colon; NCI-H522 lung; OVCAR-3 ovarian; SF-268 CNS; SK-MEL-28 melanoma; SK-OV-3 ovarian; K-562 leukemia; PC-3 prostate.
What all share (experiment): NCI anticancer screen, dose series, 48 h

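Exposure lasted 48 hours, with cells grown in 96-well plates and compounds tested at five concentrations. Abbreviation: GI50, concentration required for 50% inhibition of growth. At the TGI there is no net growth.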

Regarding `CCCCCCCCCCCCC(Br)C(=O)SCCNC(=O)CCNC(=O)[C@@H](O)C(C)(C)COP(=O)(O)OP(=O)(O)OCC1OC(n2cnc3c(N)ncnc32)C(O)C1OP(=O)(O)O` (some centres undefined), the TGI in the assay with HCC-2998 colon, in the assay on HOP-92 NSCLC, in the assay on KM12 colon, with NCI-H522 lung, in the assay with OVCAR-3 ovarian and with SF-268 CNS was greater than 56.5 µM in each case. Besides, the TGI in the assay with SK-MEL-28 melanoma and in the assay on SK-OV-3 ovarian was greater than 56.5 µM throughout.
In the case of `COC(=O)/C(C#N)=C1\N=NNN1CCCc1ccccc1`, the TGI in the assay with HCC-2998 colon was greater than 100 µM; in the assay on HOP-92 NSCLC, greater than 100 µM; with K-562 leukemia, greater than 100 µM; with KM12 colon it was greater than 100 µM; in the assay on NCI-H522 lung, 52.7 µM; in the assay on OVCAR-3 ovarian it was greater than 100 µM. For the same compound, the TGI with SK-MEL-28 melanoma and in the assay with SK-OV-3 ovarian was greater than 100 µM in each case.
Regarding `COc1ccccc1NC(=O)C1=C(C)NC(C)=C(C(=O)Nc2ccccc2OC)C1c1ccc(C(C)C)cc1`, the TGI in the assay on HCC-2998 colon was greater than 100 µM; in the assay on HOP-92 NSCLC, greater than 100 µM; with K-562 leukemia, greater than 1 µM; in the assay on KM12 colon it was greater than 100 µM; in the assay with OVCAR-3 ovarian it was greater than 100 µM; in the assay with SF-268 CNS, greater than 100 µM. In addition, the TGI with SK-MEL-28 melanoma and in the assay with SK-OV-3 ovarian was greater than 100 µM throughout.
For `O=C(NC(=S)NS(=O)(=O)c1ccc(N2N=C3c4ccccc4CC3C2c2cccs2)cc1)c1ccccc1` (centres undefined), the GI50 was 53.1 µM with HOP-92 NSCLC; 28.2 µM in the assay on KM12 colon; 20.5 µM in the assay on NCI-H522 lung; 30.6 µM with OVCAR-3 ovarian; 29.7 µM in the assay with PC-3 prostate; greater than 100 µM in the assay on SF-268 CNS. Moreover, the GI50 in the assay on SK-MEL-28 melanoma was 84 µM; in the assay with SK-OV-3 ovarian it was 90.8 µM. Moreover, the TGI in the assay with HOP-92 NSCLC is greater than 100 µM; in the assay on KM12 colon it was 91.8 µM; in the assay with NCI-H522 lung, 80.9 µM; in the assay with OVCAR-3 ovarian it was greater than 100 µM; in the assay on PC-3 prostate, greater than 100 µM; with SF-268 CNS, greater than 100 µM. The TGI with SK-MEL-28 melanoma and in the assay with SK-OV-3 ovarian was greater than 100 µM each time.
Regarding `CC1OC(OP(=O)(OCc2ccccc2)OCc2ccccc2)C(OC(=O)c2ccccc2)C(OC(=O)c2ccccc2)C1I` (centres undefined), the TGI in the assay on HCC-2998 colon was greater than 100 µM; in the assay with K-562 leukemia it was greater than 100 µM; in the assay with KM12 colon it was greater than 100 µM; in the assay on NCI-H522 lung it was 88.2 µM; with OVCAR-3 ovarian, greater than 100 µM; with SF-268 CNS, greater than 100 µM. Further, the TGI with SK-MEL-28 melanoma and with SK-OV-3 ovarian was greater than 100 µM each time.
As for `O=C(/C=C/c1ccccc1F)C(c1ccccc1)c1ccccc1`, the TGI with HOP-92 NSCLC was determined as 8.72 µM; with K-562 leukemia, 9.74 µM; with KM12 colon, 15 µM; with NCI-H522 lung, 8.29 µM; in the assay with OVCAR-3 ovarian, 15.2 µM; with SF-268 CNS, 11.3 µM. Besides, the TGI in the assay with SK-MEL-28 melanoma was determined as 6.84 µM; in the assay on SK-OV-3 ovarian, 8.47 µM.
In the case of `C/C=C/C1(NS(=O)(=O)c2ccc(C)cc2)CCC(C(C)(C)C)CC1` (centres undefined), the TGI in the assay with HCC-2998 colon stood at 36.1 µM; with HOP-92 NSCLC, 41.6 µM; in the assay on K-562 leukemia, 99.5 µM; in the assay with KM12 colon, 39 µM; in the assay on NCI-H522 lung, 26 µM; in the assay on OVCAR-3 ovarian, 34.9 µM. The results for the TGI in the assay on SF-268 CNS and with SK-OV-3 ovarian were 59.5 µM and 81.5 µM, respectively.
On to `CC(C)(C)c1ccccc1NS(=O)(=O)c1ccccc1`, for which the TGI in the assay on HCC-2998 colon, in the assay with K-562 leukemia, in the assay with KM12 colon, in the assay on OVCAR-3 ovarian, in the assay on SK-MEL-28 melanoma and in the assay on SK-OV-3 ovarian was greater than 100 µM in each case.
With `Cc1c(Cl)cccc1NC(=O)C(=O)C1C(=O)NC(=O)NC1=O`, the TGI with HCC-2998 colon, in the assay with HOP-92 NSCLC, in the assay with K-562 leukemia, in the assay on KM12 colon, in the assay on NCI-H522 lung and with OVCAR-3 ovarian was greater than 100 µM throughout. Also, the TGI in the assay with SF-268 CNS, with SK-MEL-28 melanoma and with SK-OV-3 ovarian was greater than 100 µM in each case.
In the case of `CC(C)(C)c1cc(C(O)(C(F)(F)F)C(F)(F)F)c2c(c1)C(C(F)(F)F)(C(F)(F)F)OC(c1ccccc1)(C(C)(C)C)N2` (centres undefined), the TGI worked out at 21.1 µM in the assay on HCC-2998 colon; 11.6 µM in the assay with K-562 leukemia; 17.6 µM in the assay on KM12 colon; 8.38 µM in the assay with NCI-H522 lung; 12.4 µM in the assay on OVCAR-3 ovarian; 22.1 µM in the assay with SK-MEL-28 melanoma. Besides, the TGI with SK-OV-3 ovarian was 7.39 µM.
On to `CCOC(=O)[C@H]1Nc2ccc(O)cc2C2c3ccccc3CC21` (some centres undefined), for which the TGI with HCC-2998 colon was greater than 100 µM; with K-562 leukemia, greater than 100 µM; in the assay on KM12 colon, greater than 100 µM; in the assay on NCI-H522 lung, greater than 100 µM; with OVCAR-3 ovarian it was 91.8 µM; in the assay with SF-268 CNS, greater than 100 µM. Besides, the TGI in the assay on SK-MEL-28 melanoma was 98 µM.
For the compound `O=C1C(c2ccccc2)=C(c2ccccc2)C(c2ccccc2)/C1=C1\C(=O)C(c2ccccc2)=C(c2ccccc2)C1c1ccccc1` (centres undefined), the TGI with HCC-2998 colon, in the assay with HOP-92 NSCLC, in the assay with KM12 colon, in the assay with NCI-H522 lung, in the assay with OVCAR-3 ovarian and in the assay on SF-268 CNS was greater than 100 µM throughout. Moreover, the TGI in the assay with SK-MEL-28 melanoma and in the assay on SK-OV-3 ovarian was greater than 100 µM throughout.
Consider `O=Cc1cc(O)c(O)c(O)c1-c1c(C=O)cc(O)c(O)c1O`, for which the TGI in the assay on HCC-2998 colon, in the assay on K-562 leukemia, in the assay with KM12 colon, in the assay on NCI-H522 lung, in the assay on OVCAR-3 ovarian and in the assay with SF-268 CNS was greater than 100 µM throughout. Further, the TGI in the assay with SK-MEL-28 melanoma and in the assay with SK-OV-3 ovarian was greater than 100 µM throughout.
As to `Cc1cc(Cl)ccc1N1C(=O)C(=O)C(c2nc3ccccc3s2)C(=O)C1=O`, the TGI in the assay on HOP-92 NSCLC, in the assay with K-562 leukemia, with KM12 colon, with NCI-H522 lung, with OVCAR-3 ovarian and in the assay with SF-268 CNS was greater than 100 µM throughout. Moreover, the TGI in the assay on SK-MEL-28 melanoma and with SK-OV-3 ovarian was greater than 100 µM each time.
Consider `Cc1cc2c(=O)cc(-c3ccc(Cl)cc3)oc2c(C(=O)O)c1C`, for which the TGI in the assay with K-562 leukemia, in the assay with KM12 colon, with NCI-H522 lung, in the assay on OVCAR-3 ovarian, in the assay on SF-268 CNS and in the assay on SK-MEL-28 melanoma was greater than 100 µM each time. Besides, the TGI with SK-OV-3 ovarian is greater than 100 µM.

Source of the values: PubChem BioAssay (NCI).
